Data on 6 compounds can be found in PMC8398847, “Isavuconazole: Thermodynamic Evaluation of Processes Sublimation, Dissolution and Partition in Pharmaceutically Relevant Media” (Molecules, 2021).

A short description of data set [1]: Vapor pressure by transpiration (inert gas-carrier transfer) method; sublimation thermodynamic functions. The class given is physicochemical. The following applies: test of the technique with the standard. The protocol: The thermodynamic functions of sublimation were calculated as the fitting coefficients of the Clarke and Glew equation [17]:(1) Rlnp/p^0=ΔcrgGm°(θ)/θ+ΔcrgHm°(θ)(1/θ−1/T)+ΔcrgCp,m°(θ)(θ/T−1+lnT/θ) where ΔcrgHm°(θ) is the standard molar sublimation enthalpy, ΔcrgGm°(θ) is the standard molar Gibbs energy of sublimation, and ΔcrgCp,m°(θ) is the difference between the constant pressure standard molar heat capacity Cp,m°(g) of the gaseous compound and the constant pressure standard molar heat capacity Cp,m°(cr) of the crystalline compound. The value is the arbitrary reference temperature θ = 298.15 K; p^0 = 10^5 Pa is the reference pressure.
The transpiration method was used for the sublimation experiment. A stream of an inert gas (nitrogen) was passed over a sample at the constant temperature and flow rate; saturation of the gas with the substance vapor was achieved by low transpiration rate of gas. Then, the sublimated quantity of condensed vapor was determined. The volume of the inert gas and the amount of the sublimated material were used for calculation the vapor pressure over the sample of compound at this temperature. The following procedure was used for determination the amount of sublimed substance. The condensed sample was dissolved in a known volume of solvent Vsol. The mass of the substance was determined by the measurement of absorbance A of its solution (spectrophotometer Cary-50, Varian, Palo Alto, CA, USA, Software Version 3.00 (339)). According to the Lambert–Beer law the concentration of the solution c (mol·L^−1) can express knowing a value of the extinction coefficient ε (l·mol^−1·cm^−1) of the studied compound dissolved in the solvent and an absorbing path length (l):A = εcl(5) where l is an absorbing path length. Calculation the mass of sublimed compound was performed according to the equation:m = cVsolM(6)
M is the molar mass of the studied substance.
The vapor pressure p at each temperature was determined from the amount of the substance collected within a known time:p = mRTa/VM(7) where V is the volume of the gaseous nitrogen evaluated from the time measurement and the flow rate at the flow meter temperature Ta and the atmospheric pressure. Uncertainties for transpiration experiment parameters (T, m, Ta, V) are reported as standard deviations (Table 1). The combined standard uncertainty of vapor pressure measurements were estimated taking into account uncertainties of all variables involved in eq 7.
The details of equipment and experimental procedure are given in [33]. The sublimation technique was tested with benzoic acid as standard. The experimental vapor pressure values were obtained in the temperature interval of (307–385) K and were in good agreement with the results of studies within the limits of experimental error (Figure S7). The standard sublimation enthalpy of benzoic acid measured by us was 90.5 ± 0.3 kJ·mol^−1 and consistent with recommended by IUPAC value—89.7 ± 0.5 kJ·mol^−1 [38]. Each experiment at fixed temperature was repeated three times with the standard deviation of up to 5%.

Details of data set [2]: method as in earlier work. As to conditions: cited from earlier work.
The conditions of data set [3]: 298.15 K, cited from earlier work; for sublimation Gibbs energy (kJ∙mol-1, Table S2) / sublimation enthalpy (first kJ∙mol-1 column, Table S2): bicalutamide cluster.
Setting [4] is: IVZ cluster, ref Table S1 [1]-[16].

Where “and” joins values, the source holds several entries; their conditions need not be identical. Equal values may be shown once.

Regarding `O=C(O)c1ccccc1` [benzoic acid], in data set [1], the standard sublimation enthalpy was found to be 21.6 ± 0.072 kcal/mol. Moreover, in data set [2], the “standard sublimation enthalpy recommended by IUPAC” value was 21.4 ± 0.12 kcal/mol.

With `NC(=O)c1cccc(N)c1` [m-Aminobenzamide], in data set [3], the “sublimation Gibbs energy (kJ∙mol-1, Table S2)” value is 57.5 kJ/mol and 57.8 kJ/mol; the “sublimation enthalpy (first kJ∙mol-1 column, Table S2)” value is 125.3 kJ/mol and 128.6 kJ/mol.

Consider `NC(=O)c1ccccc1N` [o-Aminobenzamide], for which, in data set [3], the “sublimation Gibbs energy (kJ∙mol-1, Table S2)” value is 46.1 kJ/mol and the “sublimation enthalpy (first kJ∙mol-1 column, Table S2)” value was 106.8 kJ/mol.

Regarding `NC(=O)c1ccc(N)cc1` [p-Aminobenzamide], in data set [3], the “sublimation Gibbs energy (kJ∙mol-1, Table S2)” value is 61.7 kJ/mol and the “sublimation enthalpy (first kJ∙mol-1 column, Table S2)” value was 131.2 kJ/mol.

Take `CC(=O)Nc1ccc(C=O)cc1` [p-acetaminobenzaldehyde]: in data set [3], the “sublimation Gibbs energy (kJ∙mol-1, Table S2)” value is 44.1 kJ/mol and the “sublimation enthalpy (first kJ∙mol-1 column, Table S2)” value is 99.1 kJ/mol.

In the case of `CC(=O)c1ccc(F)cc1` [p-fluoroacetophenone], in data set [3] (setting [4]), the “sublimation Gibbs energy (Table S1)” value is 4.21 kcal/mol and the “sublimation enthalpy (Table S1)” value was 17.1 kcal/mol.
